Test results as given in patent publication US20080026456A1, “Method and apparatus for reducing pathogens in a biological sample” (priority 2002, published 2008).

Legend:
[1] = test system: cultured cells and embryos; design: dose or concentration left out as unconfirmed; conditions: 37° C.; cited from earlier work
[2] = test system: Campylobacter fetus isolate [4914]; format: cell-based
[3] = test system: Brucella abortus Strain 19; format: cell-based
[4] = test system: Mycoplasma species; conditions: without detrimentally affecting embryonic development in vitro; cited from earlier work
[5] = test system: fresh semen of domestic bulls (Bos taurus) and gaur (Bos gaur) bulls; assay: Sperm survival after Percoll column with trypsin, fresh bull and gaur semen; format: cell-based; conditions: 0.125% trypsin in 45% Percoll column
[6] = test system: bovine sperm; assay: Sperm viability with trypsin in density gradient (later studies)
[7] = test system: confluent buffalo rat liver cell monolayers; assay: Trypsin activity after dilution: detachment of confluent somatic cell monolayers; format: cell-based; conditions: final concentrations 0.125% and […]

| Compound | sensitivity of isolate to antibiotic [2] | sensitivity of isolate to antibiotic [3] | also measured |
| --- | --- | --- | --- |
| NC[C@H]1O[C@H](O[C@H]2[C@H](O)[C@@H](O[C@H]3O[C@H](CO)[C@@H](O)[C@H](N)[C@H]3O)[C@H](N)C[C@@H]2N)[C@H](O)[C@@H](O)[C@@H]1O [kanamycin] |  |  | toxicity to cultured cells and embryos [1]: very little toxicity |
| CCC[C@@H]1C[C@@H](C(=O)N[C@@H]([C@H]2O[C@H](SC)[C@H](O)[C@@H](O)[C@H]2O)[C@@H](C)O)N(C)C1 [lincomycin] | sensitive | resistant |  |
| CN[C@@H]1[C@H](O)[C@H](NC)[C@H]2O[C@@]3(O)C(=O)C[C@@H](C)O[C@H]3O[C@@H]2[C@H]1O [spectinomycin] | intermediate | sensitive |  |
| CC[C@H]1OC(=O)C[C@@H](O)[C@H](C)[C@@H](O[C@@H]2O[C@H](C)[C@@H](O[C@H]3C[C@@](C)(O)[C@@H](O)[C@H](C)O3)[C@H](N(C)C)[C@H]2O)[C@@H](CC=O)C[C@@H](C)C(=O)/C=C/C(C)=C/[C@@H]1CO[C@@H]1O[C@H](C)[C@@H](O)[C@@H](OC)[C@H]1OC [tylosin] | intermediate | intermediate | minimal concentration for eliminating Mycoplasma species from bovine embryos [4]: 200 µg/mL |
| gentamicin | sensitive | sensitive |  |
| trypsin |  |  | effect on sperm motility, viability, acrosomal integrity [5]: no detrimental affects; effect of increasing trypsin concentration on sperm [6]: no detrimental effects; enzymatic activity after dilution with Percoll, Isolate or egg yolk-based cryodiluents [7]: did not diminish enzymatic activity |
